Measured values from patent US7501430B2 (ArQule, Inc., priority 2006, dated 2009).
Where two headings read alike, the source gives them in different places.

Key:
[1] = target: T1, mutant B-RAF (Homo sapiens, UniProt P15056, V600E); assay: RAF biochemical assay (MEK-1 phosphorylation, anti-phospho MEK1/2 detection); details: for IC50: read-out: Mutant B-RAF IC50; for inhibition at 10 µM: read-out: Mutant B-RAF % inhibition
T1 construct: purchased Upstate (Charlottesville, Va.)
In short: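 Detection is by ELISA: after a 30 min room-temperature reaction, plate-captured GST-MEK-1 is probed with anti-phospho MEK1/2, then an AP-tagged secondary antibody with fluorescent Attophos read-out.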

[2] = system: Colo-205 human colon cancer cell line (B-RAF V600E); assay: MTS cell growth assay, Colo-205; type: cell-based; details: Colo205 cells, 72 hours
Description: (§1) Compounds of the present invention have been tested for activity against a variety of cancer cell lines. The ability of compounds to inhibit cell growth in this assay is correlated with the reduction of dehydrogenase enzyme activity found in metabolically active cells.
(§2) Materials: A375 (a human melanoma cell line that harbors the B-RAF mutation V600E), Colo-205 (a human colon cancer cell line that harbors the B-RAF mutation V600E), DLD1 (a human colon cancer cell line that harbors the K-ras mutation G13D), SK-MEL-2 (a human melanoma cell line that harbors the N-ras mutation Q61R), SK-MEL-28 (a human melanoma cell line that harbors the B-RAF mutation V600E), and SW480 (a human colon cancer cell line that harbors the K-ras mutation G12V) cells from ATCC were maintained at 37° C., 5% CO2 in DMEM media supplemented with 10% fetal bovine serum, penicillin/streptomycin and fungizone (Invitrogen). NCM460 (Incell), a normal colon epithelial cell line, and human mammary epithelial cells (Cambrex) were maintained at 37° C., 5% CO2 in DMEM and HEBM media (Cambrex), respectively.
(§3) Methods: Test compounds were dissolved and diluted to 300× in DMSO then diluted 1:40 in DMEM. Cells were seeded into 96-well tissue culture plates at 2-5×10^3 per well and cultured at 37° C. for 24 h. Cells were incubated with test compounds for 72 hours followed by incubation with tetrazolium compound (3-(4,5-dimethylthiazol-2-yl)-5-(3-carboxymethoxyphenyl)-2-(4-sulfophenyl)-2H-tetrazolium, inner salt; MTS) and the electron coupling reagent, phenazine methosulfate (PMS) for 4 hr. […] The measurement of the absorbance of the formazan was assessed using an ENVISION™ (Perkin Elmer) microplate reader at 492 nm. The calculated IC50 value is the concentration of the test compound that causes a 50% decrease in the absorbance.

[3] = system: SW480 human colon cancer cell line (K-ras G12V); assay: MTS cell growth assay, SW480; type: cell-based; details: SW480 cells, 72 hours, read-out: IC50 SW480 KRAS (G12V)
Description: as §1, §2, §3

[4] = system: DLD1 human colon cancer cell line (K-ras G13D); assay: MTS cell growth assay, DLD1; type: cell-based; details: DLD-1, DLD1 cells, 72 hours, read-out: IC50 DLD1 KRAS (G13D)
Description: as §1, §2, §3

[5] = system: human mammary epithelial cells (HMEC, normal); assay: MTS cell growth assay, HMEC; type: cell-based; details: 72 hours
Description: as §1, §2, §3

[6] = system: SK-MEL-28 human melanoma cell line (B-RAF V600E); assay: MTS cell growth assay, SK-MEL-28; type: cell-based; details: SKMEL28 cells, 72 hours
Description: as §1, §2, §3

[7] = system: A375 human melanoma cell line (B-RAF V600E); assay: MTS cell growth assay, A375; type: cell-based; details: A-375, A375 cells, 72 hours
Description: as §1, §2, §3

[8] = system: NCM460 normal colon epithelial cell line; assay: MTS cell growth assay, NCM460; type: cell-based; details: Homo sapiens, NCM460 normal cells, 72 hours
Description: as §1, §2, §3

[9] = system: SK-MEL-2 human melanoma cell line (N-ras Q61R); assay: MTS cell growth assay, SK-MEL-2; type: cell-based; details: SKMEL2 cells, 72 hours, read-out: IC50 SKMEL2 NRAS (Q61R)
Description: as §1, §2, §3

T1 sequence (P15056 whole entry V600E): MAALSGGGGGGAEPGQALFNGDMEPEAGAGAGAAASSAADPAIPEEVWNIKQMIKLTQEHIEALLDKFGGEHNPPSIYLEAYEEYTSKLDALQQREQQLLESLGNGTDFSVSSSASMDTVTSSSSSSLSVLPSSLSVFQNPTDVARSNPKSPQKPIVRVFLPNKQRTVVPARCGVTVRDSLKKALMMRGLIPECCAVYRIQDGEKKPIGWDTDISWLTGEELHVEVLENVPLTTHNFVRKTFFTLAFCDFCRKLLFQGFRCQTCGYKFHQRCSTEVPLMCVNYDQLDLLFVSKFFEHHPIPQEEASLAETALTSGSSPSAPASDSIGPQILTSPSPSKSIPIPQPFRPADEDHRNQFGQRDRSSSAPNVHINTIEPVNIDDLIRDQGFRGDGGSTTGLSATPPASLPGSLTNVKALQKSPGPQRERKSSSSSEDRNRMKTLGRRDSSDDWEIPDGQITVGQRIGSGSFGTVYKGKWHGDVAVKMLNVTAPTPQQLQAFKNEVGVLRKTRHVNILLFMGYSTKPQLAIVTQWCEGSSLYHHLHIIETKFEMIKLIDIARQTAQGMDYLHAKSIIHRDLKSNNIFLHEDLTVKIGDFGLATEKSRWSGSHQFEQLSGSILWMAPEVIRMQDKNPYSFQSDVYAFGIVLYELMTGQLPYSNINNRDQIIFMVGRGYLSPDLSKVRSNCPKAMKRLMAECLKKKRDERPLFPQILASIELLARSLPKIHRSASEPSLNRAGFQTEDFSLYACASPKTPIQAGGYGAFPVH

Work on `COc1cccc(-c2nc3sccn3c2-c2ccnc(N[C@@H]3CCCN(C(=O)c4ccncc4)C3)n2)c1` [Example 112, N-[(3R)-1-isonicotinoylpiper-idin-3-yl]-4-[6-(3-methoxyphenyl)imidazo[2,1-b][1,3]thiazol-5-yl]pyrimidin-2-amine] yielded an IC50 [1] greater than 5 µM, an IC50 [2] of 0.33 µM and an IC50 [3] of 2.74 µM. For the same compound, the IC50 [4] was 3.33 µM, the IC50 [5] was 2.24 µM and the IC50 [6] was 0.86 µM. It also gave an IC50 [7] of 0.27 µM, an IC50 [8] of 4.71 µM and an IC50 [9] of 0.91 µM.

Compound `O=S(=O)(c1ccc(Cl)cc1)N1CCC(Nc2nccc(-c3c(-c4cccc(O)c4)nc4sccn34)n2)CC1` [Example 267, 3-{5-[2-({1-[(4-chlorophenyl)sulfonyl]piperidin-4-yl}amino)pyrimidin-4-yl]imidazo[2,1-b][1,3]thiazol-6-yl}phenol] has an IC50 [1] of 0.031 µM, an IC50 [2] of 0.19 µM and an IC50 [3] of 2.13 µM. It also gave an IC50 [4] of 1.76 µM, an IC50 [5] of 1.07 µM and an IC50 [6] of 0.38 µM. It also gave an IC50 [7] of 0.27 µM, an IC50 [8] of 2.05 µM and an IC50 [9] of 0.87 µM.

Compound `COc1ccccc1-c1nc2sccn2c1-c1ccnc(N[C@@H]2CCCN(S(=O)(=O)c3ccc(Cl)cc3)C2)n1` [Example 105, N-{(3R)-1-[(4-chlorophenyl)sulfonyl]piperidin-3-yl}-4-[6-(2-methoxyphenyl)imidazo[2,1-b][1,3]thiazol-5-yl]pyrimidin-2-amine] has an IC50 [1] of 0.25 µM, an IC50 [2] of 0.38 µM and an IC50 [3] of 1.28 µM. For the same compound, the IC50 [4] was 4.73 µM, the IC50 [5] was 2.72 µM and the IC50 [6] was 0.48 µM. For the same compound, the IC50 [7] was 0.31 µM, the IC50 [8] was 6.68 µM and the IC50 [9] was 1.1 µM.

`O=C(c1ccc(F)cc1)N1CCC(Nc2nccc(-c3c(-c4ccc(F)cc4)nc4sccn34)n2)CC1` [Example 289, N-[1-(4-fluorobenzoyl)piperidin-4-yl]-4-[6-(4-fluorophenyl)imidazo[2,1-b][1,3]thiazol-5-yl]pyrimidin-2-amine] showed an IC50 [1] greater than 10 µM, an IC50 [2] of 0.18 µM and an IC50 [3] of 2.97 µM. It also gave an IC50 [4] of 3.08 µM, an IC50 [5] of 1.24 µM and an IC50 [6] of 0.67 µM. The IC50 [7] was 0.15 µM, the IC50 [8] was 4.17 µM and the IC50 [9] was 0.99 µM.

Compound `CCNC(=O)N1CCC(Nc2nccc(-c3c(-c4cccc(O)c4)nc4sccn34)n2)CC1` [Example 268, N-ethyl-4-({4-[6-(3-hydroxyphenyl)imidazo[2,1-b][1,3]thiazol-5-yl]pyrimidin-2-yl}amino)piperidine-1-carboxamide] has an IC50 [1] of 0.009 µM, an IC50 [2] of 0.36 µM and an IC50 [3] of 4.4 µM. For the same compound, the IC50 [4] was 4.03 µM, the IC50 [5] was 0.72 µM and the IC50 [6] was 0.8 µM. It also gave an IC50 [7] of 0.37 µM, an IC50 [8] of 2.54 µM and an IC50 [9] of 1.33 µM.

In the case of `O=S(=O)(c1ccc(Cl)cc1)N1CCC[C@@H](Nc2nccc(-c3c(-c4cccc(/C=N\O)c4)nc4sccn34)n2)C1` [Example 395, 3-{5-[2-({(3R)-1-[(4-chlorophenyl)sulfonyl]piperidin-3-yl}amino)pyrimidin-4-yl]imidazo[2,1-b][1,3]thiazol-6-yl}benzaldehyde oxime], the IC50 [1] is reported as 0.018 µM.

Compound `O=S(=O)(c1ccc(F)cc1)N1CCC(Nc2nccc(-c3c(-c4cccc(O)c4)nc4sccn34)n2)CC1` [Example 266, 3-{5-[2-({1-[(4-fluorophenyl)sulfonyl]piperidin-4-yl}amino)pyrimidin-4-yl]imidazo[2,1-b][1,3]thiazol-6-yl}phenol] has an IC50 [1] of 0.029 µM.

`Fc1ccc(-c2nc3sccn3c2-c2ccnc(NC3CCNCC3)n2)cc1` [Example 155, 4-[6-(4-fluorophenyl)imidazo[2,1-b][1,3]thiazol-5-yl]-N-piperidin-4-ylpyrimidin-2-amine] gave an IC50 [1] of 2.36 µM.

Compound `NC(=O)N1CCC(Nc2nccc(-c3c(-c4ccc(F)cc4)nc4occn34)n2)CC1` [Example 256, 4-({4-[6-(4-fluorophenyl)imidazo[2,1-b][1,3]oxazol-5-yl]pyrimidin-2-yl}amino)piperidine-1-carboxamide] has an IC50 [1] greater than 1 µM.

In the case of `COc1cccc(S(=O)(=O)N2CCC(Nc3nccc(-c4c(-c5ccc(F)cc5)nc5occn45)n3)CC2)c1` [Example 231, 4-[6-(4-fluorophenyl)imidazo[2,1-b][1,3]oxazol-5-yl]-N-{1-[(3-methoxyphenyl)sulfonyl]piperidin-4-yl}pyrimidin-2-amine], the IC50 [1] is reported as 0.408 µM.

Compound `O=S(=O)(c1ccc(Cl)cc1)N1CCC[C@@H](Nc2nccc(-c3c(-c4ccc(F)cc4)nc4occn34)n2)C1` [Example 43, N-{(3R)-1-[(4-chlorophenyl)sulfonyl]piper-idin-3-yl}-4-[6-(4-fluorophenyl)imidazo[2,1-b][1,3]oxazol-5-yl]pyrimidin-2-amine] has an IC50 [1] of 0.143 µM.

Work on `CC(=O)N1CCC(Nc2nccc(-c3c(-c4ccc(F)cc4)nc4sccn34)n2)CC1` [Example 291, N-(1-acetylpiperidin-4-yl)-4-[6-(4-fluorophenyl)imidazo[2,1-b][1,3]thiazol-5-yl]pyrimidin-2-amine] yielded an inhibition at 10 µM ([1]; @ 10 uM) of 41%.

`O=S(=O)(CC(F)(F)F)N1CCC[C@@H](Nc2nccc(-c3c(-c4cccc(O)c4)nc4sccn34)n2)C1` [Example 375, 3-{5-[2-({(3R)-1-[(2,2,2-trifluoroethyl)sulfonyl]piperidin-3-yl}amino)pyrimidin-4-yl]imidazo[2,1-b][1,3]thiazol-6-yl}phenol] showed an IC50 [1] greater than 3 µM.

With `CN(C)c1ccc(NC(=O)N2CCC(Nc3nccc(-c4c(-c5ccc(F)cc5)nc5occn45)n3)CC2)cc1` [Example 175, N-[4-(dimethylamino)phenyl]-4-({4-[6-(4-fluorophenyl)imidazo[2,1-b][1,3]oxazol-5-yl]pyrimidin-2-yl}amino)piperidine-1-carboxamide] the IC50 [1] was 0.066 µM.

`O=S(=O)(c1ccc(Cl)cc1)N1CCC[C@@H](Nc2nccc(-c3c(-c4ccc(O)c(O)c4)nc4sccn34)n2)C1` [Example 134, 4-{5-[2-({(3R)-1-[(4-chlorophenyl)sulfonyl]piperidin-3-yl}amino)pyrimidin-4-yl]imidazo[2,1-b][1,3]thiazol-6-yl}benzene-1,2-diol] was tested, and the IC50 [1] was 0.024 µM.

With `CN(C)c1ccc(C(=O)N2CCC[C@@H](Nc3nccc(-c4c(-c5ccc(F)cc5)nc5occn45)n3)C2)cc1` [Example 39, N-{(3R)-1-[4-(dimethyl-amino)benzoyl]piperidin-3-yl}-4-[6-(4-fluorophenyl)imidazo[2,1-b][1,3]oxazol-5-yl]pyrimidin-2-amine] the IC50 [1] was 0.477 µM.

With `Cc1ccccc1S(=O)(=O)N1CCC[C@@H](Nc2nccc(-c3c(-c4ccc(F)cc4)nc4occn34)n2)C1` [Example 53, 4-(6-(4-fluorophenyl)imi-dazo[2,1-b][1,3]oxazol-5-yl]-N-{(3R)-1-[(2-methylphenyl)sulfonyl]piperidin-3-yl}pyrimidin-2-amine] the inhibition at 10 µM [1] was 42%.

`O=[N+]([O-])c1cccc(-c2nc3sccn3c2-c2ccnc(N[C@@H]3CCCN(S(=O)(=O)c4ccc(Cl)cc4)C3)n2)c1` [Example 120, N-{(3R)-1-[(4-chlorophenyl)sulfonyl]piperidin-3-yl}-4-[6-(3-nitrophenyl)imidazo[2,1-b][1,3]thiazol-5-yl]pyrimidin-2-amine] was tested, and the inhibition at 10 µM ([1]; @ 10 uM) was 55%.

`COc1cccc(-c2nc3sccn3c2-c2ccnc(NC3CCN(S(=O)(=O)c4ccc(CCC(=O)O)cc4)CC3)n2)c1` [Example 270, 3-(4-{[4-({4-[6-(3-methoxyphenyl)imidazo[2,1-b][1,3]thiazol-5-yl]pyrimidin-2-yl}amino)piperidin-1-yl]sulfonyl}phenyl)propanoic acid] gave an IC50 [1] of 0.316 µM.
